Laboratory results reported in ChEMBL document CHEMBL3745645, “Synthesis, in vitro antitumor activity, dihydrofolate reductase inhibition, DNA intercalation and structure-activity relationship studies of 1,3,5-triazine analogues” (Bioorg Med Chem Lett, 2016).
The source made the active and inactive calls. The calls are words filed in the database; no cut-off is given here.

Tests used:
[1] = Cytotoxicity against human RXF393 cells at 10 uM after 48 hrs by SRB assay; format: functional; settings: RXF 393, 48 h, read-out: GI
MCF7 [2] = test: Cytotoxicity against human MCF7 cells at 10 uM after 48 hrs by SRB assay; format: functional; settings: MCF7, 48 h, read-out: GI
T47D = test: Cytotoxicity against human T47D cells at 10 uM after 48 hrs by SRB assay; format: functional
MDA-MB-468 = test: Cytotoxicity against human MDA-MB-468 cells at 10 uM after 48 hrs by SRB assay; format: functional
[3] = Cytotoxicity against human HL-60(TB) cells after 48 hrs by SRB assay; format: functional; settings: HL-60, 48 h, read-out: LC50 (the source's name)
[4] = Cytotoxicity against human RPMI8226 cells after 48 hrs by SRB assay; format: functional; settings: RPMI-8226, 48 h, read-out: LC50 (the source's name)
SR [5] = test: Cytotoxicity against human SR cells after 48 hrs by SRB assay; format: functional
A549 [6] = test: Cytotoxicity against human A549 cells after 48 hrs by SRB assay; format: functional; settings: A549, 48 h, pooled result: one value given for 8 cell lines, strains, targets or settings
[7] = Cytotoxicity against human COLO205 cells after 48 hrs by SRB assay; format: functional; settings: COLO 205, 48 h, pooled result: one value given for 7 cell lines, strains, targets or settings
[8] = Cytotoxicity against human IGROV1 cells after 48 hrs by SRB assay; format: functional; settings: IGROV-1, 48 h, pooled result: one value given for 7 cell lines, strains, targets or settings
786-0 [9] = test: Cytotoxicity against human 786-0 cells after 48 hrs by SRB assay; format: functional; settings: 786-0, 48 h, pooled result: one value given for 8 cell lines, strains, targets or settings
[10] = Cytotoxicity against human PC3 cells after 48 hrs by SRB assay; format: functional; settings: PC-3, 48 h; for GI50 / TGI: pooled result: one value given for 2 cell lines, strains, targets or settings
MCF7 [11] = test: Cytotoxicity against human MCF7 cells after 48 hrs by SRB assay; format: functional; settings: MCF7, 48 h, pooled result: one value given for 6 cell lines, strains, targets or settings
Dihydrofolate reductase = target: T1, Dihydrofolate reductase (Homo sapiens, UniProt P00374); test: Inhibition of human recombinant DHFR expressed in Escherichia coli by spectrophotometric analysis
T1 sequence (P00374 whole entry): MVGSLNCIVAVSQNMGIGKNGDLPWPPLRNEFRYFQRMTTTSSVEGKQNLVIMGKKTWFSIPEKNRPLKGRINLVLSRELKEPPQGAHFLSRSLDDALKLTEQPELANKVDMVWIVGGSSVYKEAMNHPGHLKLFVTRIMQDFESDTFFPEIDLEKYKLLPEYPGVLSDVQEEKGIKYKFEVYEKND

Calf thymus DNA [12] = test: Binding affinity to calf thymus DNA by UV-vis spectrometric analysis; format: nucleic-acid assay; settings: Bos taurus
Calf thymus DNA [13] = test: Binding affinity to calf thymus DNA by fluorescence spectrophotometric analysis; format: nucleic-acid assay; settings: Bos taurus
Calf thymus DNA [14] = test: Binding affinity to calf thymus DNA assessed as melting temperature by spectrophotometric analysis (reference value: 60 degC); format: nucleic-acid assay; settings: Bos taurus
K562 = test: Cytotoxicity against human K562 cells at 10 uM after 48 hrs by SRB assay; format: functional; settings: K562, 48 h, read-out: GI
[15] = Cytotoxicity against human MOLT4 cells at 10 uM after 48 hrs by SRB assay; format: functional; settings: MOLT-4, 48 h, read-out: GI
SR [16] = test: Cytotoxicity against human SR cells at 10 uM after 48 hrs by SRB assay; format: functional
A549 [17] = test: Cytotoxicity against human A549 cells at 10 uM after 48 hrs by SRB assay; format: functional
[18] = Cytotoxicity against human HOP92 cells at 10 uM after 48 hrs by SRB assay; format: functional; settings: HOP-92, 48 h, read-out: GI
NCI-H226 = test: Cytotoxicity against human NCI-H226 cells at 10 uM after 48 hrs by SRB assay; format: functional
NCI-H322M = test: Cytotoxicity against human NCI-H322M cells at 10 uM after 48 hrs by SRB assay; format: functional; settings: read-out: GI
NCI-H460 = test: Cytotoxicity against human NCI-H460 cells at 10 uM after 48 hrs by SRB assay; format: functional
NCI-H522 = test: Cytotoxicity against human NCI-H522 cells at 10 uM after 48 hrs by SRB assay; format: functional
[19] = Cytotoxicity against human HCT116 cells at 10 uM after 48 hrs by SRB assay; format: functional; settings: HCT-116, 48 h, read-out: GI
HT-29 = test: Cytotoxicity against human HT-29 cells at 10 uM after 48 hrs by SRB assay; format: functional
KM12 = test: Cytotoxicity against human KM12 cells at 10 uM after 48 hrs by SRB assay; format: functional
[20] = Cytotoxicity against human SF539 cells at 10 uM after 48 hrs by SRB assay; format: functional; settings: SF-539, 48 h, read-out: GI
[21] = Cytotoxicity against human SNB19 cells at 10 uM after 48 hrs by SRB assay; format: functional; settings: SNB-19, 48 h, read-out: GI
[22] = Cytotoxicity against human SNB75 cells at 10 uM after 48 hrs by SRB assay; format: functional; settings: SNB-75, 48 h, read-out: GI
U-251 = test: Cytotoxicity against human U251 cells at 10 uM after 48 hrs by SRB assay; format: functional
Malme-3M = test: Cytotoxicity against human MALME-3M cells at 10 uM after 48 hrs by SRB assay; format: functional
MDA-MB-435 = test: Cytotoxicity against human MDA-MB-435 cells at 10 uM after 48 hrs by SRB assay; format: functional
[23] = Cytotoxicity against human IGROV1 cells at 10 uM after 48 hrs by SRB assay; format: functional; settings: IGROV-1, 48 h, read-out: GI
[24] = Cytotoxicity against human OVCAR3 cells at 10 uM after 48 hrs by SRB assay; format: functional; settings: OVCAR-3, 48 h, read-out: GI
786-0 [25] = test: Cytotoxicity against human 786-0 cells at 10 uM after 48 hrs by SRB assay; format: functional
ACHN = test: Cytotoxicity against human ACHN cells at 10 uM after 48 hrs by SRB assay; format: functional; settings: read-out: GI

SMILES: Cc1nc2ccc(Nc3nc(Cl)nc(Nc4ccc(F)cc4)n3)cc2n1Cc1ccccc1
- inhibition of growth at 10 µM [1]: 15.4%
- inhibition of growth at 10 µM (MCF7 [2]): 37.4%
- inhibition of growth at 10 µM (T47D; read-out: GI): 63.2%
- inhibition of growth at 10 µM (MDA-MB-468; MDA-MB-468, 48 h, read-out: GI): 30.3%
- CC50 [3]: > 100 µM
- CC50 [4]: > 100 µM
- LC50 (concentration killing 50% of cells) (SR [5]): > 100 µM
- GI50 (A549 [6]): 6.23 µM
- LC50 (A549 [6]): 69.6 µM
- TGI (A549 [6]): 20.3 µM
- GI50 [7]: 4.91 µM
- LC50 [7]: 54.6 µM
- TGI [7]: 18.1 µM
- GI50 [8]: 8.1 µM
- LC50 (concentration killing 50% of cells) [8]: 78.8 µM
- TGI [8]: 29.8 µM
- GI50 (786-0 [9]): 7.49 µM
- LC50 (concentration killing 50% of cells) (786-0 [9]): 55.5 µM
- TGI (786-0 [9]): 30 µM
- LC50 [10]: 52.5 µM
- GI50 [10]: 8.27 µM
- TGI [10]: 27.7 µM
- GI50 (MCF7 [11]): 4.21 µM
- LC50 (concentration killing 50% of cells) (MCF7 [11]): 75.8 µM
- TGI (MCF7 [11]): 11.9 µM
- IC50 (Dihydrofolate reductase): 0.31 µM
- Ka (Calf thymus DNA [12]): 6.03 ×10⁴ /M
- Ka (Calf thymus DNA [13]): 2.97 ×10⁴ /M
- Tm (Calf thymus DNA [14]): 57 °C
- inhibition of growth at 10 µM (K562): 63.1%
- inhibition of growth at 10 µM [15]: 41.1%
- inhibition of growth at 10 µM (SR [16]; read-out: GI): 63.9%
- inhibition of growth at 10 µM (A549 [17]; A549, 48 h, read-out: GI): 23.8%
- inhibition of growth at 10 µM [18]: 21.2%
- inhibition of growth at 10 µM (NCI-H226; NCI-H226, 48 h, read-out: GI): 26.8%
- inhibition of growth at 10 µM (NCI-H322M): 11.9%
- inhibition of growth at 10 µM (NCI-H460; NCI-H460, 48 h, read-out: GI): 20.1%
- inhibition of growth at 10 µM (NCI-H522; NCI-H522, 48 h, read-out: GI): 77.5%
- inhibition of growth at 10 µM [19]: 55.8%
- inhibition of growth at 10 µM (HT-29; HT-29, 48 h, read-out: GI): 15.8%
- inhibition of growth at 10 µM (KM12; KM12, 48 h, read-out: GI): 27.2%
- inhibition of growth at 10 µM [20]: 1.83%
- inhibition of growth at 10 µM [21]: 12%
- inhibition of growth at 10 µM [22]: 4.24%
- inhibition of growth at 10 µM (U-251; U-251, 48 h, read-out: GI): 30.9%
- inhibition of growth at 10 µM (Malme-3M; read-out: GI): 11.5%
- inhibition of growth at 10 µM (MDA-MB-435; MDA-MB-435, 48 h, read-out: GI): 11.2%
- inhibition of growth at 10 µM [23]: 33.3%
- inhibition of growth at 10 µM [24]: 5.09%
- inhibition of growth at 10 µM (786-0 [25]; 786-0, 48 h, read-out: GI): 20.4%
- inhibition of growth at 10 µM (ACHN): 28.4%

SMILES: Cc1nc2cc(Nc3nc(Nc4ccc(F)cc4)nc(N4CCCC4)n3)ccc2n1Cc1ccccc1
- inhibition of growth at 10 µM (MCF7 [2]): 97%
- growth inhibition (GI) (T47D): Active
- growth inhibition (GI) (MDA-MB-468): Active
- CC50 [3]: > 100 µM
- CC50 [4]: > 100 µM
- LC50 (concentration killing 50% of cells) (SR [5]): > 100 µM
- GI50 (A549 [6]): 1.82 µM
- LC50 (A549 [6]): 14.5 µM
- TGI (A549 [6]): 4.02 µM
- GI50 [7]: 1.81 µM
- LC50 [7]: 6.93 µM
- TGI [7]: 3.54 µM
- GI50 [8]: 1.9 µM
- LC50 (concentration killing 50% of cells) [8]: 11 µM
- TGI [8]: 4.01 µM
- GI50 (786-0 [9]): 1.75 µM
- LC50 (concentration killing 50% of cells) (786-0 [9]): 1.26 µM
- TGI (786-0 [9]): 3.56 µM
- LC50 [10]: 6 µM
- GI50 [10]: 1.82 µM
- TGI [10]: 3.82 µM
- GI50 (MCF7 [11]): 1.98 µM
- LC50 (concentration killing 50% of cells) (MCF7 [11]): 6.69 µM
- TGI (MCF7 [11]): 4.88 µM
- IC50 (Dihydrofolate reductase): 0.11 µM
- Ka (Calf thymus DNA [12]): 5.23 ×10⁴ /M
- Ka (Calf thymus DNA [13]): 5.46 ×10⁴ /M
- Tm (Calf thymus DNA [14]): 71.5 °C
- inhibition of growth at 10 µM (K562): 100%
- growth inhibition (GI) (SR [16]): Active
- growth inhibition (GI) (A549 [17]): Active
- growth inhibition (GI) (NCI-H226): Active
- inhibition of growth at 10 µM (NCI-H322M): 78.6%
- growth inhibition (GI) (NCI-H460): Active
- growth inhibition (GI) (NCI-H522): Active
- growth inhibition (GI) (HT-29): Active
- growth inhibition (GI) (KM12): Active
- inhibition of growth at 10 µM [21]: 66.4%
- growth inhibition (GI) (U-251): Active
- growth inhibition (GI) (Malme-3M): Active
- growth inhibition (GI) (MDA-MB-435): Active
- growth inhibition (GI) (786-0 [25]): Active
- inhibition of growth at 10 µM (ACHN): 88.5%
